Laboratory results as given in patent publication US5047397A, “Linear analogs of atrial natriuretic peptides” (California Biotechnology Inc., priority 1988, dated 1991).
Where a SMILES comes first, the peptide text is derived from it. [ ]: non-standard residue; d: D form. The star is where a group is joined. ξ: configuration not given here. Butyryl(4-indol-3-yl) = O=C(CCCc1c[nH]c2ccccc12)*; Dibenzylacetyl = O=C(C(Cc1ccccc1)Cc1ccccc1)*; X5 = O=C(C(Cc1cccc2ccccc12)Cc1cccc2ccccc12)*; ξNaproxenoyl = COc1ccc2cc(C(C)C(=O)*)ccc2c1; Acetyl(2-naphthyl) = O=C(Cc1ccc2ccccc2c1)*; NMeI = CC[C@H](C)[C@H](NC)C(=O)O; Met(O) = CS(=O)CC[C@H](N)C(=O)O; Cha = N[C@@H](CC1CCCCC1)C(=O)O; Nle = CCCC[C@H](N)C(=O)O; Aib = CC(C)(N)C(=O)O; Ava = NCCCCC(=O)O; NHiBu = CC(C)CN*; βAla = NCCC(=O)O; X3 = CCC(C)CN*

Molecular target: T1, specific ANP receptor sites on BASM or BAE cells (Bos taurus, UniProt P10730)
T1 construct: specific receptor sites on BASM or BAE cells; endogenous in cells; host or cells: cultured BASM and BAE cells
T1 sequence (P10730 42-537): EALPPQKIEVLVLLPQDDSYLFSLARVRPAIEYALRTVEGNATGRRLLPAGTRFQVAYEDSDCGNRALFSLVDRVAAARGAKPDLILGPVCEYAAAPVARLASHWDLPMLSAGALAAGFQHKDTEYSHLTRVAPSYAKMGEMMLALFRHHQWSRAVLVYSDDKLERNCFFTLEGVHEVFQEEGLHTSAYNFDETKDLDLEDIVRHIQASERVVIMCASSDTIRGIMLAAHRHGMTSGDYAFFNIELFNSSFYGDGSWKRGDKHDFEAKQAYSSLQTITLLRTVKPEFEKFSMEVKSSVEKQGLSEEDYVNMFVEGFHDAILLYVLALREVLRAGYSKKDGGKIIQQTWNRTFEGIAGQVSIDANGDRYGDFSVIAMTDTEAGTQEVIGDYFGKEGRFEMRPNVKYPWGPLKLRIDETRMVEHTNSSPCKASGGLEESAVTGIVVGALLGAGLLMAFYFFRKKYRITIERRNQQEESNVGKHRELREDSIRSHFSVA
Test: Competitive displacement receptor binding of (125I)-rANP(126-150) on cultured cells
Set-up: species or system bovine
Details: for Ki(app): concentration of unlabeled peptide displacing 50% of maximal binding of 0.5 nM (125I)-rANP(126-150), BASM or BAE cells
Excerpt: Analogous "competitive displacement" receptor binding assays are considered commonplace in the art for examining specific ligand-receptor interactions.
Assuming these ANP analogs act at one or more ANP receptor sites, then increased receptor affinity should reflect increased biological potency.

Compound | Ki(app) [µM] | receptor binding / activity as judged by Ki, in words
CC[C@H](C)[C@H](NC(=O)[C@H](CCCNC(=N)N)NC(=O)CNC(=O)CNC(=O)Cc1ccc2ccccc2c1)C(=O)N[C@@H](CC(=O)O)C(=O)N[C@@H](CCCNC(=N)N)C(=O)NCC(C)C [AP510] ({Acetyl(2-naphthyl)}-GGRIDR-NHiBu) | 0.116 | 
CC[C@H](C)[C@H](NC(=O)[C@H](CCCNC(=N)N)NC(=O)[C@H](CC(=O)O)NC(=O)[C@@H](NC(=O)[C@H](CC(C)C)NC(=O)CNC(=O)CNC(=O)Cc1ccc2ccccc2c1)[C@@H](C)CC)C(N)=O [AP512, (2-NA)--G--G--L--I--D--R--I--NH2] ({Acetyl(2-naphthyl)}-GGLIDRI-NH2) | > 0.16 | very low, if any, activity
CCCC[C@H](NC(=O)CNC(=O)CNC(=O)Cc1ccc2ccccc2c1)C(=O)N[C@H](C(=O)N[C@@H](CC(=O)O)C(=O)N[C@@H](CCCNC(=N)N)C(=O)N[C@H](C(N)=O)[C@@H](C)CC)[C@@H](C)CC [AP514, (2-NA)--G--G--Nle--I--D--R--I--NH2] ({Acetyl(2-naphthyl)}-GG[Nle]IDRI-NH2) | 0.267 | very low, if any, activity
CC[C@H](C)[C@H](NC(=O)[C@H](CO)NC(=O)[C@H](CC(=O)O)NC(=O)[C@@H](NC(=O)[C@H](CCCNC(=N)N)NC(=O)CNC(=O)CNC(=O)Cc1ccc2ccccc2c1)[C@@H](C)CC)C(N)=O [AP516, (2-NA)--G--G--R--I--D--S--I--NH2] ({Acetyl(2-naphthyl)}-GGRIDSI-NH2) | 0.399 | very low, if any, activity
CC[C@H](C)[C@H](NC(=O)[C@H](CCCNC(=N)N)NC(=O)CNC(=O)CNC(=O)Cc1ccc2ccccc2c1)C(=O)N[C@@H](CC(=O)O)C(=O)N[C@@H](CCCNC(=N)N)C(=O)N1CCC[C@H]1C(N)=O [AP519, (2-NA)--G--G--R--I--D--R--P--NH2] ({Acetyl(2-naphthyl)}-GGRIDRP-NH2) | > 0.4 | very low, if any, activity
CC[C@H](C)[C@H](NC(=O)[C@H](CCCNC(=N)N)NC(=O)[C@H](CC(=O)O)NC(=O)[C@@H](NC(=O)[C@H](CCC(N)=O)NC(=O)CNC(=O)CNC(=O)Cc1ccc2ccccc2c1)[C@@H](C)CC)C(N)=O [AP522, (2-NA)--G--G--Q--I--D--R--I--NH2] ({Acetyl(2-naphthyl)}-GGQIDRI-NH2) | 0.023 | 
CCNC(=O)CNC(=O)[C@@H](NC(=O)[C@H](CCCNC(=N)N)NC(=O)[C@H](CC(=O)O)NC(=O)[C@@H](NC(=O)[C@H](CCCNC(=N)N)NC(=O)CNC(=O)CNC(=O)Cc1ccc2ccccc2c1)[C@@H](C)CC)[C@@H](C)CC [AP524, (2-NA)--G--G--R--I--D--R--I--G--NH-(ethyl)] ({Acetyl(2-naphthyl)}-GGRIDRIG-NHEt) | 0.00276 | 
CC[C@H](C)[C@H](NC(=O)[C@H](CCCNC(=N)N)NC(=O)[C@H](CC(=O)O)NC(=O)[C@@H](NC(=O)[C@H](CCCNC(=N)N)NC(=O)CNC(=O)CNC(=O)Cc1ccc2ccccc2c1)[C@@H](C)CC)C(=O)NCC(=O)NC(C)(C)C(N)=O [AP525, (2-NA)--G--G--R--I--D--R--I--G--(Aib)--NH2] ({Acetyl(2-naphthyl)}-GGRIDRIG[Aib]-NH2) | 0.02275 | 
CC[C@H](C)[C@H](NC(=O)[C@H](CCCNC(=N)N)NC(=O)[C@H](CC(=O)O)NC(=O)[C@@H](NC(=O)[C@H](CCCNC(=N)N)NC(=O)CNC(=O)CNC(=O)Cc1ccc2ccccc2c1)[C@@H](C)CC)C(=O)NCCCCC(N)=O [AP526, (2-NA)--G--G--R--I--D--R--I--NH--(CH2)4 --CONH2] ({Acetyl(2-naphthyl)}-GGRIDRI[Ava]-NH2) | 0.0505 | 
CC[C@H](C)[C@H](NC(=O)[C@H](CCCNC(=N)N)NC(=O)[C@H](CC(=O)O)NC(=O)[C@@H](NC(=O)[C@H](CCCNC(=N)N)NC(=O)CNC(=O)CNC(=O)C(C)c1ccc2cc(OC)ccc2c1)[C@@H](C)CC)C(=O)NCC(=O)N[C@@H](C)C(N)=O (stereo partly drawn) [AP528, 2(2'-(6'-MeONAP))--G--G--R--I--D--R--I--G--A--NH2] (ξNaproxenoyl-GGRIDRIGA-NH2) | 0.0225 | 
CCNC(=O)CNC(=O)[C@H]([C@@H](C)CC)N(C)C(=O)[C@H](CCCNC(=N)N)NC(=O)[C@H](CC(=O)O)NC(=O)[C@@H](NC(=O)[C@H](CCCNC(=N)N)NC(=O)CNC(=O)CNC(=O)Cc1ccc2ccccc2c1)[C@@H](C)CC [AP529] ({Acetyl(2-naphthyl)}-GGRIDR[NMeI]G-NHEt) | 0.0873 | 
CCNC(=O)CNC(=O)[C@@H](NC(=O)[C@H](CCCNC(=N)N)NC(=O)[C@H](CC(=O)O)NC(=O)[C@@H](NC(=O)[C@H](CCCNC(=N)N)NC(=O)CCCCNC(=O)Cc1ccc2ccccc2c1)[C@@H](C)CC)[C@@H](C)CC [AP530, (2-NA)--NH(CH2)4 CO--R--I--D--R--I--G--NH--(ethyl)] ({Acetyl(2-naphthyl)-Ava}-RIDRIG-NHEt) | 0.0505 | 
CC[C@H](C)[C@H](NC(=O)[C@H](CCCNC(=N)N)NC(=O)[C@H](CC(=O)O)NC(=O)[C@@H](NC(=O)[C@H](CCCNC(=N)N)NC(=O)CNC(=O)CCCc1c[nH]c2ccccc12)[C@@H](C)CC)C(=O)NCC(=O)N[C@@H](C)C(N)=O [AP531, (3-IB)--G--R--I--D--R--I--G--A--NH2)] ({Butyryl(4-indol-3-yl)}-GRIDRIGA-NH2) | 0.00934 | 
CC[C@H](C)[C@H](NC(=O)[C@H](CCCNC(=N)N)NC(=O)[C@H](CC(=O)O)NC(=O)[C@@H](NC(=O)[C@H](CCCNC(=N)N)NC(=O)CNC(=O)CNC(=O)C(Cc1cccc2ccccc12)Cc1cccc2ccccc12)[C@@H](C)CC)C(=O)NCC(=O)N[C@@H](C)C(N)=O [AP533] (X5-GGRIDRIGA-NH2) | 0.052 | 
CC[C@H](C)[C@H](NC(=O)[C@H](CCCNC(=N)N)NC(=O)[C@H](CC(=O)O)NC(=O)[C@@H](NC(=O)[C@H](CCCNC(=N)N)NC(=O)CNC(=O)CNC(=O)C(Cc1ccccc1)Cc1ccccc1)[C@@H](C)CC)C(=O)NCC(=O)N[C@@H](C)C(N)=O [AP534, (DBA)--G--G--R-- I--D--R--I--G--A--NH2)] (Dibenzylacetyl-GGRIDRIGA-NH2) | 0.00881 | 

The remaining lines, values ahead:

Ki(app) [µM] | receptor binding / activity as judged by Ki, in words | Compound
0.0847 |  | CCC(C)CNC(=O)[C@H](CCCNC(=N)N)NC(=O)[C@H](CC(=O)O)NC(=O)[C@@H](NC(=O)[C@H](CCCNC(=N)N)NC(=O)CNC(=O)CNC(=O)Cc1ccc2ccccc2c1)[C@@H](C)CC (some centres unmarked) [AP511, (2-NA)GGRIDRNHCH2CH(CH3)CH3 CH3] ({Acetyl(2-naphthyl)}-GGRIDR-X3)
> 0.4 | very low, if any, activity | CC[C@H](C)[C@H](NC(=O)[C@H](CCCNC(=N)N)NC(=O)[C@H](CC(=O)O)NC(=O)[C@H](CC[S+](C)[O-])NC(=O)[C@H](CCCNC(=N)N)NC(=O)CNC(=O)CNC(=O)Cc1ccc2ccccc2c1)C(N)=O (stereo partly drawn) [AP515, (2-NA)--G--G--R--MSO--D--R--I--NH2] ({Acetyl(2-naphthyl)}-GGR[Met(O)]DRI-NH2)
0.038 |  | CC[C@H](C)[C@H](NC(=O)[C@H](CCCNC(=N)N)NC(=O)[C@H](CCC(=O)O)NC(=O)[C@@H](NC(=O)[C@H](CCCNC(=N)N)NC(=O)CNC(=O)CNC(=O)Cc1ccc2ccccc2c1)[C@@H](C)CC)C(N)=O [AP518, (2-NA)--G--G--R--I--E--R--I--NH2] ({Acetyl(2-naphthyl)}-GGRIERI-NH2)
0.4 | very low, if any, activity | CC[C@H](C)[C@H](NC(=O)[C@H](CCCNC(=N)N)NC(=O)[C@H](CC(=O)O)NC(=O)[C@H](Cc1ccccc1)NC(=O)[C@H](CCCNC(=N)N)NC(=O)CNC(=O)CNC(=O)Cc1ccc2ccccc2c1)C(N)=O [AP521, (2-NA)--G--G--R--F--D--R--I--NH2] ({Acetyl(2-naphthyl)}-GGRFDRI-NH2)
0.0367 |  | CC[C@H](C)[C@H](NC(=O)[C@H](CCCNC(=N)N)NC(=O)[C@H](CC(=O)O)NC(=O)[C@@H](NC(=O)[C@H](CCCCN)NC(=O)CNC(=O)CNC(=O)Cc1ccc2ccccc2c1)[C@@H](C)CC)C(N)=O [AP523, (2-NA)--G--G--K--I--D--R--I--NH2] ({Acetyl(2-naphthyl)}-GGKIDRI-NH2)
0.0225 |  | CC[C@H](C)[C@H](NC(=O)[C@H](CCCNC(=N)N)NC(=O)[C@H](CC(=O)O)NC(=O)[C@H](CC1CCCCC1)NC(=O)[C@H](CCCNC(=N)N)NC(=O)CNC(=O)CNC(=O)Cc1ccc2ccccc2c1)C(N)=O [AP527, (2-NA)--G--G--R--Cha--D--R--I--NH2] ({Acetyl(2-naphthyl)}-GGR[Cha]DRI-NH2)
0.01195 |  | CC[C@H](C)[C@H](NC(=O)[C@H](CCCNC(=N)N)NC(=O)[C@H](CC(=O)O)NC(=O)[C@@H](NC(=O)[C@H](CCCNC(=N)N)NC(=O)CCNC(=O)CCCc1c[nH]c2ccccc12)[C@@H](C)CC)C(=O)NCC(=O)N[C@@H](C)C(N)=O [AP532, (3-IB)--beta--Ala--R--I--D--R--I--G--A--NH2)] ({Butyryl(4-indol-3-yl)-βAla}-RIDRIGA-NH2)
0.014 |  | CC[C@H](C)[C@H](NC(=O)[C@H](CCCNC(=N)N)NC(=O)CNC(=O)CNC(=O)Cc1ccc2ccccc2c1)C(=O)N[C@@H](CC(=O)O)C(=O)N[C@@H](CCCNC(=N)N)C(=O)N[C@@H](C(N)=O)C(C)C [AP535, (2-NA)--G--G--R--I--D--R--V^ --NH2)] ({Acetyl(2-naphthyl)}-GGRIDR[dV]-NH2)
